Assay results published in patent US9540343B2 (Gilead Sciences, Inc., priority 2011, dated 2017).

Legend:
HIV-IIIb = assay: Test A: Antiviral assay in MT4 cells; format: cell-based, HIV-1; conditions: MT-4 cells infected with HIV-IIIb, 5 days, CellTiter-Glo; for inhibition at 2 µM: Human immunodeficiency virus 1, IIIB, MT4, 120 h, read-out: % inhibition at 2 μM, percent inhibition of virus-induced cell killing, from dose response curve at 2 uM drug
in vitro = assay: in vitro
Outline: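 Cytoprotection read-out: CellTiter-Glo chemiluminescence after 5 days at 37 °C of HIV-IIIb-infected MT-4 cells (m.o.i. 0.003) with compound in 10-point 3-fold dilutions, quadruplicate, 10% FBS. Cytotoxicity (CC50) measured identically without virus.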

[1] = human, uninfected MT-4 cells, CC50 (nM), same protocol as Test A, CellTiter-Glo
[2] = human, CC50 (nM), uninfected MT-4 cells, same protocol as Test A, CellTiter-Glo

| Structure (SMILES) | inhibition at 2 µM (HIV-IIIb) [%] | CC50 at 5 days (in vitro; [1]) [nM] | CC50 at 5 days (in vitro; [2]) [nM] | % inhibition at 2 μM (HIV-IIIb; percent inhibition of virus-induced cell killing, from dose response curve at 2 uM drug) [%] |
| --- | --- | --- | --- | --- |
| CC(C)(C)OC(=O)Nc1ccc2[nH]cc(CC(=O)N[C@@H](Cc3cc(F)cc(F)c3)c3ncccc3-c3cccc(C(N)=O)c3)c2c1 [Example 496B, (S)-tert-butyl 3-(2-(1-(3-(3-carbamoylphenyl)pyridin-2-yl)-2-(3,5-difluorophenyl)ethylamino)-2-oxoethyl)-1H-indol-5-ylcarbamate] | 17 | 18400 |  |  |
| Cc1[nH]c2ccccc2c1CC(=O)N[C@@H](Cc1cc(F)cc(F)c1)c1ncccc1-c1cccc(C(N)=O)c1 [Example 497, (S)-3-(2-(2-(3,5-difluorophenyl)-1-(2-(2-methyl-1H-indol-3-yl)acetamido)ethyl)pyridin-3-yl)benzamide] | 67 | 27100 |  |  |
| Cc1cc2ccn(CC(=O)N[C@@H](Cc3cc(F)cc(F)c3)c3ncccc3-c3ccc(F)c(C(N)=O)c3)c2cc1C [Example 498F, (S)-5-(2-(2-(3,5-difluorophenyl)-1-(2-(5,6-dimethyl-1H-indol-1-yl)acetamido)ethyl)pyridin-3-yl)-2-fluorobenzamide] | 60 | 13200 |  |  |
| COc1ccc(CC(=O)N[C@@H](Cc2cc(F)cc(F)c2)c2ncccc2-c2cccc(C(N)=O)c2)c(OC)c1 [Example 499, (S)-3-(2-(2-(3,5-difluorophenyl)-1-(2-(2,4-dimethoxyphenyl)acetamido)ethyl)pyridin-3-yl)benzamide] | 22 | > 53000 |  |  |
| CC(=O)c1cn(CC(=O)N[C@@H](Cc2cc(F)cc(F)c2)c2ncccc2-c2cccc(C(N)=O)c2)c2ccccc12 [Example 500, (S)-3-(2-(1-(2-(3-acetyl-1H-indol-1-yl)acetamido)-2-(3,5-difluorophenyl)ethyl)pyridin-3-yl)benzamide] | 59 |  | 24300 |  |
| NC(=O)c1cccc(-c2cccnc2[C@H](Cc2cc(F)cc(F)c2)NC(=O)Cc2ccccc2)c1 [Example 501, (S)-3-(2-(2-(3,5-difluorophenyl)-1-(2-phenylacetamido)ethyl)pyridin-3-yl)benzamide] | 11 | 39600 |  |  |
| CC(C)(C)OC(=O)NCc1ccc2c(CC(=O)N[C@@H](Cc3cc(F)cc(F)c3)c3ncccc3-c3cccc(C(N)=O)c3)c[nH]c2c1 [Example 502F, (S)-tert-butyl (3-(2-(1-(3-(3-carbamoylphenyl)pyridin-2-yl)-2-(3,5-difluorophenyl)ethylamino)-2-oxoethyl)-1H-indol-6-yl)methylcarbamate] | 50 | 3050 |  |  |
| CCC(C(=O)N[C@@H](Cc1cc(F)cc(F)c1)c1ncccc1-c1ccc(F)c(C(N)=O)c1)n1nc(C(F)(F)F)c2c1CCCC2 (stereo partly drawn) [Example 504E, 5-(2-((1S)-2-(3,5-difluorophenyl)-1-(2-(3-(trifluoromethyl)-4,5,6,7-tetrahydro-1H-indazol-1-yl)butanamido)ethyl)pyridin-3-yl)-2-fluorobenzamide] |  | 12800 |  | 142 |
| NC(=O)c1cc(-c2cccnc2[C@H](Cc2cc(F)cc(F)c2)NC(=O)Cn2nc(C(F)F)cc2C(F)F)ccc1F [Example 505, (S)-5-(2-(1-(2-(3,5-bis(difluoromethyl)-1H-pyrazol-1-yl)acetamido)-2-(3,5-difluorophenyl)ethyl)pyridin-3-yl)-2-fluorobenzamide] | 28 | > 47400 |  |  |
| Cc1nn(CC(=O)N[C@@H](Cc2cc(F)cc(F)c2)c2ncccc2-c2cccc(C(N)=O)c2)c(C)c1C [Example 506, (S)-3-(2-(2-(3,5-difluorophenyl)-1-(2-(3,4,5-trimethyl-1H-pyrazol-1-yl)acetamido)ethyl)pyridin-3-yl)benzamide] | 32 | > 53000 |  |  |
| CC(C(=O)N[C@@H](Cc1cc(F)cc(F)c1)c1ncccc1-c1ccc(F)c(C(N)=O)c1)n1ccc(C(F)(F)F)n1 (stereo partly drawn) [Example 507B, 5-(2-((1S)-2-(3,5-difluorophenyl)-1-(2-(3-(trifluoromethyl)-1H-pyrazol-1-yl)propanamido)ethyl)pyridin-3-yl)-2-fluorobenzamide] | 22 | > 45300 |  |  |
| O=C(Cn1nc(C(F)F)c2c1C(F)(F)CCC2(F)F)N[C@@H](Cc1cc(F)cc(F)c1)c1ncccc1-c1ccc2c(c1)CNC2=O [Example 508D, (S)-2-(3-(difluoromethyl)-4,4,7,7-tetrafluoro-4,5,6,7-tetrahydro-1H-indazol-1-yl)-N-(2-(3,5-difluorophenyl)-1-(3-(1-oxoisoindolin-5-yl)pyridin-2-yl)ethyl)acetamide] | 96 | 5130 |  |  |
| CCc1cccc2c(C(C)=O)cn(CC(=O)N[C@@H](Cc3cc(F)cc(F)c3)c3ncccc3-c3ccc(F)c(C(N)=O)c3)c12 [Example 509, (S)-5-(2-(1-(2-(3-acetyl-7-ethyl-1H-indol-1-yl)acetamido)-2-(3,5-difluorophenyl)ethyl)pyridin-3-yl)-2-fluorobenzamide] | 48 |  | 24600 |  |
| NC(=O)c1cccc(-c2cccnc2[C@H](Cc2cc(F)cc(F)c2)NC(=O)Cc2cccc(Cl)c2)c1 [Example 510, (S)-3-(2-(1-(2-(3-chlorophenyl)acetamido)-2-(3,5-difluorophenyl)ethyl)pyridin-3-yl)benzamide] | 3 | 35900 |  |  |
| CCC(C(=O)N[C@@H](Cc1cc(F)cc(F)c1)c1ncccc1-c1ccc(F)c(C(N)=O)c1)n1nc(C(F)(F)F)cc1C1CC1 (stereo partly drawn) [Example 511C, 5-(2-((1S)-1-(2-(5-cyclopropyl-3-(trifluoromethyl)-1H-pyrazol-1-yl)butanamido)-2-(3,5-difluorophenyl)ethyl)pyridin-3-yl)-2-fluorobenzamide] | 17 | 11800 |  |  |
| O=C(Cn1nc(C(F)F)cc1C(F)F)N[C@@H](Cc1cc(F)cc(F)c1)c1ncccc1-c1cnc2[nH]ccc2c1 [Example 512C, (S)—N-(1-(3-(1H-pyrrolo[2,3-b]pyridin-5-yl)pyridin-2-yl)-2-(3,5-difluorophenyl)ethyl)-2-(3,5-bis(difluoromethyl)-1H-pyrazol-1-yl)acetamide] | 60 | 19900 |  |  |
| O=C(Cc1c[nH]c2ccc(C(F)(F)F)cc12)N[C@@H](Cc1cc(F)cc(F)c1)c1ncccc1-c1ccc(Cl)cc1 [Example 513, (S)—N-(1-(3-(4-chlorophenyl)pyridin-2-yl)-2-(3,5-difluorophenyl)ethyl)-2-(5-(trifluoromethyl)-1H-indol-3-yl)acetamide] | 63 | 10700 |  |  |
| NC(=O)c1cc(-c2cccnc2[C@H](Cc2cc(F)cc(F)c2)NC(=O)Cn2ccc3cnccc32)ccc1F [Example 514, (S)-5-(2-(1-(2-(1H-pyrrolo[3,2-c]pyridin-1-yl)acetamido)-2-(3,5-difluorophenyl)ethyl)pyridin-3-yl)-2-fluorobenzamide] | 3 | > 46100 |  |  |
| Cc1[nH]c2ccc(F)cc2c1CC(=O)N[C@@H](Cc1cc(F)cc(F)c1)c1ncccc1-c1cccc(C(N)=O)c1 [Example 517E, (S)-3-(2-(2-(3,5-difluorophenyl)-1-(2-(5-fluoro-2-methyl-1H-indol-3-yl)acetamido)ethyl)pyridin-3-yl)benzamide] | 87 | 19100 |  |  |
